What was measured:
US28 [1] = target: T1, US28 (Human cytomegalovirus, UniProt P69332); experiment: inhibition of 125I-fractalkine binding to US28 expressing cells; parameters: a mouse cell line stably expressing transfected US28 cDNA under the control of a CMV promoter; expressed in transfected cells; species or system human cytomegalovirus (CMV)
Protocol: The US28 expressing cells used in most assays consist of a mouse cell line stably expressing transfected US28 cDNA under the control of a CMV promoter. These cells were cultured in IMDM-5% FBS, and harvested when the concentration was between 0.5-1.0×10^6 cells/mL. Some assays were performed with adherent human 293 cells (US28-293 cells) or membranes. The cells were centrifuged and resuspended in assay buffer (20 mM HEPES, 140 mM NaCl, 1 mM CaCl2, 5 mM MgCl2, and with 0.2% bovine serum albumin) to a concentration of 5.6×10^6 cells/mL. Using the Multi-Probe automated system, set up with 8 assay plates at a time, first 0.09 mL of cells was added to the assay plates containing the compounds. The final concentration of the compounds was 5 μg/mL each (1 μg/mL Comgenex). Then 0.09 mL of ^125I-fractalkine diluted in assay buffer (final concentration ˜[…], with ˜30,000 cpm per well) was added, the plates sealed and incubated for approximately 3 hours at 4 degrees C. on a shaker platform. The assay plates were harvested using Packard filter plates, pre-soaked in PEI solution, on the vacuum harvest apparatus. Scintillation fluid (35 μL) was added to all wells, the plates were sealed and counted in a Top Count scintillation counter. […]
S-(−)-IBZM (from the RBI division of Sigma Chemical Co., St. Louis, Mo., USA, Catalog No. I-139) was evaluated in the assays described in Examples 1 and 2. […]

US28 [2] = target: T1, US28; experiment: cytoplasmic calcium mobilization in US28-293 cells; format: cell-based, human cytomegalovirus (CMV); parameters: expressed in transfected cells; host or cells: human 293 cells (US28-293 cells); settings: compound added before fractalkine (FIG. 2)
Protocol: For each test, 1×10^6 cells were incubated at 37° C. in the cuvette of a PTI spectrometer, and the ratio of 410/490 nm emission plotted over time (typically 2-3 minutes), with compounds added at 5 seconds, followed by fractalkine at 60 seconds. […] Compounds which inhibited fractalkine binding were tested in this assay for the effects on Ca^2+ in this system.
S-(−)-IBZM (from the RBI division of Sigma Chemical Co., St. Louis, Mo., USA, Catalog No. I-139) was evaluated in the assays described in Examples 1 and 2. The IC50 value was 0.6 μM.

chemokine receptors = experiment: binding specificity among chemokine receptors tested; settings: all chemokine receptors tested
US28 [3] = target: T1, US28; experiment: reversibility of binding to US28, competition assay with fractalkine; parameters: a mouse cell line stably expressing transfected US28 cDNA under the control of a CMV promoter; expressed in transfected cells; species or system human cytomegalovirus (CMV); settings: pre-incubated with US28 expressing cells at 0-10 μg/mL, removed by competition with fractalkine (FIG. 3)
Protocol: FIG. 3 illustrates the reversibility of IBZM binding to US28. In this figure, IBZM is pre-incubated with US28 expressing cells (at concentrations of 0-10 μg/mL) and removed by competition with fractalkine.
In this assay, IBZM is pre-incubated with US28 expressing cells (at concentrations of 0-10 μg/mL) and removed by competition with fractalkine (see FIG. 3).

T1 sequence (P69332 whole entry): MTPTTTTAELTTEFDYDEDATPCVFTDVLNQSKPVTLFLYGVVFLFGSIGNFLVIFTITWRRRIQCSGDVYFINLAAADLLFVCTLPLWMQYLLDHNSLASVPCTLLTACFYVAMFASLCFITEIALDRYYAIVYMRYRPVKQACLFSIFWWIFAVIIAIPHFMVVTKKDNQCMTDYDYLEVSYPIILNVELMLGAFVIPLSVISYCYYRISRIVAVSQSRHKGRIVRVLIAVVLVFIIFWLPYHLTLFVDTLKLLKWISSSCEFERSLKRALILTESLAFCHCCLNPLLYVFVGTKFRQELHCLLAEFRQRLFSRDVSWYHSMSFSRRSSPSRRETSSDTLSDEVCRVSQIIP

CCN1CCC[C@H]1CNC(=O)c1c(OC)ccc(I)c1O [IBZM, S(−)-3-Iodo-2-hydroxy-6-methoxy-N[(1-ethyl-2-pyrrolidinyl)methyl]benzamide]
IC50 (US28 [1]): 600 nM | mode of action in calcium mobilization (US28 [2]): competitive agonist | specificity of binding among chemokine receptors (chemokine receptors): bind specifically to US28 | reversibility of binding to US28 (US28 [3]): reversible
